Molecules are shown by their SMILES. “And” between values parts separate entries of the source, which are not always exact repeats. Identical values can stand only once.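 Cells were grown in 96-well plates and exposed to each compound for 48 hours at five concentrations; endpoints were interpolated linearly between bracketing concentrations, or set to the highest concentration if not reached. GI50 = concentration required for 50% inhibition of growth. TGI marks complete inhibition of growth.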 A value given as a limit tells only on which side of the number the result lay.

The subject of the first experiment is COLO 205 colon. Nature of the experiment: NCI anticancer screen, dose series, 48 h.
In turn, `O=c1c(-c2ccccc2)nnc2n(Cc3ccccc3)c3ccccc3n12` came in with a TGI above 100 µM.

As to `COc1cc([C@@H]2c3cc4c(cc3[C@@H](Nc3ccc(NC(=O)c5cc([N+](=O)[O-])cn5C)cc3)[C@H]3COC(=O)[C@H]23)OCO4)cc(OC)c1O`, the TGI is 2.61 µM and 1.3 µM.

Take `COc1ccc(/C(Nc2ccccc2)=C(\CCl)c2ccccc2)cc1OC`: the TGI was above 100 µM.

The subject of a further experiment is BT-549 breast. The experiment is described as follows: NCI anticancer screen, dose series, 48 h.
The compound `COC1(OC)CCc2c(sc3ncnc(Nc4cccc(Br)c4)c23)C1` came in with a TGI above 100 µM.

As for `CCOC(=O)c1cn(CC)c(=O)n2c1nc1ccccc12`, the TGI was above 100 µM.

As to `O=[N+]([O-])c1ccc(/C=N/Nc2nc3ccccc3[nH]2)o1`, the TGI is 31.1 µM.

Turning to `COc1ccc(-c2oc3cc(-c4cc5oc(-c6ccc(OC)cc6)c(-c6ccc(OC)cc6)c5cc4OC)c(OC)cc3c2-c2ccc(OC)cc2)cc1`, the TGI is above 100 µM.

`C[C@H]1CC[C@@]2(OC1)O[C@H]1C[C@H]3[C@@H]4CC[C@@H]5C[C@@H](OC6OC(CO)C(O)C(O)C6OC6OC(CO)C(O)C(O)C6O)CC[C@]5(C)[C@H]4CC[C@]3(C)[C@H]1[C@@H]2C` (some centres undefined) came in with a TGI of 4.1 µM.

On to `O=C(NCCC1CNc2ccccc21)OCc1ccccc1` (centres undefined), for which the TGI is above 100 µM.

Consider `CCN1/C(=C/C#C/C(C)=C\c2sc3ccc(Cl)cc3[n+]2CC)Sc2ccc(Cl)cc21`, for which the TGI is 6 µM.

As for `CSC(=O)/C=C1\SS/C(=C\C(=O)SC)S1`, the TGI turned out to be 3.26 µM.

With `CC(N)(CC(O)(C(F)(F)Cl)C(F)(F)Cl)C(=O)O` (centres undefined), the TGI was above 10 µM.

`COc1ccc(CCCCNCc2cccc(CNCCCCc3ccc(OC)cc3)c2)cc1`: the TGI was 3.36 µM.

Consider `CC(SC(=S)N1CCOCC1)C(=O)Nc1nnc(-c2ccc(Cl)cc2)o1` (centres undefined), for which the TGI is above 100 µM.

Regarding `O=C(CCc1cc(O)cc(O)c1)NCCc1cc(O)cc(OCc2ccccc2)c1`, the TGI came out at 66.1 µM.

Take `COC(=O)/C=C/c1ccc(OP(=O)(O)O)c(OC)c1`: the TGI is above 100 µM.

As to `COc1cc2nc(Cl)nc(NS(=O)(=O)c3cc4ccccc4s3)c2cc1OC`, the TGI is 57.9 µM.

As to `O=c1c(-c2ccccc2)nnc2n(Cc3ccccc3)c3ccccc3n12`, the TGI was above 100 µM.

Turning to `COC(=O)c1c(C)cccc1/C=C1\Cc2ccc(C)c(C)c2C1=O`, the TGI was above 100 µM.

With `COc1cc([C@@H]2c3cc4c(cc3[C@@H](Nc3ccc(NC(=O)c5cc([N+](=O)[O-])cn5C)cc3)[C@H]3COC(=O)[C@H]23)OCO4)cc(OC)c1O`, the GI50 is 0.515 µM and the TGI is above 100 µM.

The compound `COc1ccc(/C(Nc2ccccc2)=C(\CCl)c2ccccc2)cc1OC` came in with a TGI above 100 µM.

The subject of another experiment is EKVX NSCLC. Nature of the experiment: NCI anticancer screen, dose series, 48 h.
As for `COC1(OC)CCc2c(sc3ncnc(Nc4cccc(Br)c4)c23)C1`, the TGI is 59.2 µM.

Consider `CCOC(=O)c1cn(CC)c(=O)n2c1nc1ccccc12`, for which the TGI was above 100 µM.

For `O=[N+]([O-])c1ccc(/C=N/Nc2nc3ccccc3[nH]2)o1`, the TGI is 67.2 µM.

On to `COc1ccc(-c2oc3cc(-c4cc5oc(-c6ccc(OC)cc6)c(-c6ccc(OC)cc6)c5cc4OC)c(OC)cc3c2-c2ccc(OC)cc2)cc1`, for which the TGI is above 100 µM.

`C[C@H]1CC[C@@]2(OC1)O[C@H]1C[C@H]3[C@@H]4CC[C@@H]5C[C@@H](OC6OC(CO)C(O)C(O)C6OC6OC(CO)C(O)C(O)C6O)CC[C@]5(C)[C@H]4CC[C@]3(C)[C@H]1[C@@H]2C` (some centres undefined): the TGI stood at 3.79 µM.

Consider `O=C(NCCC1CNc2ccccc21)OCc1ccccc1` (centres undefined), for which the TGI is above 100 µM.

The compound `CCN1/C(=C/C#C/C(C)=C\c2sc3ccc(Cl)cc3[n+]2CC)Sc2ccc(Cl)cc21` showed a TGI of 20.8 µM.

As to `CSC(=O)/C=C1\SS/C(=C\C(=O)SC)S1`, the TGI was determined as 6.68 µM.

For `CC(N)(CC(O)(C(F)(F)Cl)C(F)(F)Cl)C(=O)O` (centres undefined), the TGI is above 10 µM.

In turn, `COc1ccc(CCCCNCc2cccc(CNCCCCc3ccc(OC)cc3)c2)cc1` displayed a TGI of 3.42 µM.

The compound `O=C(CCc1cc(O)cc(O)c1)NCCc1cc(O)cc(OCc2ccccc2)c1` registered a TGI above 100 µM.

In the case of `COC(=O)/C=C/c1ccc(OP(=O)(O)O)c(OC)c1`, the TGI was above 100 µM.

With `COc1cc2nc(Cl)nc(NS(=O)(=O)c3cc4ccccc4s3)c2cc1OC`, the TGI was 66.5 µM.

Take `O=c1c(-c2ccccc2)nnc2n(Cc3ccccc3)c3ccccc3n12`: the TGI was above 100 µM.

`COC(=O)c1c(C)cccc1/C=C1\Cc2ccc(C)c(C)c2C1=O` showed a TGI above 100 µM.

`COc1cc([C@@H]2c3cc4c(cc3[C@@H](Nc3ccc(NC(=O)c5cc([N+](=O)[O-])cn5C)cc3)[C@H]3COC(=O)[C@H]23)OCO4)cc(OC)c1O` had a TGI above 100 µM.

Consider `COc1ccc(/C(Nc2ccccc2)=C(\CCl)c2ccccc2)cc1OC`, for which the TGI is above 100 µM.

A further experiment has as its system UO-31 renal. The experiment is described as follows: NCI anticancer screen, dose series, 48 h.
`COC1(OC)CCc2c(sc3ncnc(Nc4cccc(Br)c4)c23)C1` yielded a TGI above 100 µM.

With `CCOC(=O)c1cn(CC)c(=O)n2c1nc1ccccc12`, the TGI is 10.2 µM.

Regarding `O=[N+]([O-])c1ccc(/C=N/Nc2nc3ccccc3[nH]2)o1`, the TGI is 47.5 µM.

As for `COc1ccc(-c2oc3cc(-c4cc5oc(-c6ccc(OC)cc6)c(-c6ccc(OC)cc6)c5cc4OC)c(OC)cc3c2-c2ccc(OC)cc2)cc1`, the TGI is above 100 µM.

The compound `C[C@H]1CC[C@@]2(OC1)O[C@H]1C[C@H]3[C@@H]4CC[C@@H]5C[C@@H](OC6OC(CO)C(O)C(O)C6OC6OC(CO)C(O)C(O)C6O)CC[C@]5(C)[C@H]4CC[C@]3(C)[C@H]1[C@@H]2C` (some centres undefined) had a TGI of 3.67 µM.

In turn, `O=C(NCCC1CNc2ccccc21)OCc1ccccc1` (centres undefined) yielded a TGI above 100 µM.

Regarding `CCN1/C(=C/C#C/C(C)=C\c2sc3ccc(Cl)cc3[n+]2CC)Sc2ccc(Cl)cc21`, the TGI worked out at 14.5 µM.

As for `CSC(=O)/C=C1\SS/C(=C\C(=O)SC)S1`, the TGI was found to be 6.89 µM.

Take `CC(N)(CC(O)(C(F)(F)Cl)C(F)(F)Cl)C(=O)O` (centres undefined): the TGI is above 10 µM.

`COc1ccc(CCCCNCc2cccc(CNCCCCc3ccc(OC)cc3)c2)cc1` yielded a TGI of 2.68 µM.

Values taken from PubChem BioAssay (NCI).
